“Also recorded” adds a separate entry of the source.
What was measured:
[1] = test system: CD40-induced NF-κB reporter gene activity; assay: NF-κB reporter in HEK293-NF-κB-luc cells over-expressing CD40; format: cell-based; settings: CID-2858522 4 μM, IKK inhibitor 10 μM, PKC inhibitor 1 μM
Protocol: (§1) FIGS. 3 (A-F) HEK293-NF-κB-luc cells were pretreated with CID-2858522 (4 μM), IKK inhibitor, BMS-335541 (10 μM), or PKC inhibitor, Bisindolylmaleimide I (1 μM) for 2 hrs and then transfected with plasmids encoding CD4/TLR4 (A), CD40 (B), NOD1 (C), NOD2 (D), cIAP2-MALT1 (E), or XIAP and TAB (F), or pcDNA as control (compounds were not removed). After 48 hrs, luciferase activity was measured expressing data as fold increase relative to unstimulated cells (mean±SD; n=3). (G-H) HEK293-NF-κB-luc cells were pretreated with CID-2858522 (4 μM), or IKK inhibitor, BMS-335541 (10 μM) for 2 hrs and then cultured with 2 μM doxorubicin (G) or 16 μM retinoic acid (H). After 48 hrs, luciferase activity was measured as above.
(§2) Counter Screening and Secondary Assays. To counter-screen for inhibitors of the TNF pathway, HEK293-NFκB-Luc cells were seeded at 10^5 cells per well in 90 μL medium in white 96-well plates (Greiner Bio-One) and cultured overnight, before adding compounds (5 μL in medium) to cells. After 2 h incubation, 5 μL TNF (200 ng/mL) (R&D Systems) was added (final concentration 10 ng/mL) and cells were incubated for 16 h. Luciferase activity was measured using Britelite kit (Perkin Elmer). To counter-screen for inhibitors of NF-κB induced by TLR4, CD40, NOD1, NOD2, cIAP2/MALT, or XIAP/TAB, the 293-NF-κB-luc cells cultured in 96 well plates as above were pretreated with compounds for 2 h and then transfected using Lipofectamine 2000 with various plasmids including pcDNA3 (“empty vector” control) or plasmids encoding CD4-TLR4, CD40, NOD1, NOD2, cIAP2/MALT, XIAP/TAB, using 0.2 μL of transfection reagent containing 100 ng DNA per well. Cells were cultured in medium containing CID-2858522 or other compounds and luciferase activity was measured 48 h later. […] Reactions were then initiated by addition of 50 μL 160 nM ATP (Sigma) in PBS and luciferase activity was measured 2 h later using a luminometer (LJL Biosystems, Sunnyvale, Calif.).

[2] = test system: NOD1 (NLRC1) induced NF-κB-luciferase reporter gene activity; assay: NF-κB reporter in HEK293-NF-κB-luc cells over-expressing NOD1; format: cell-based; settings: CID-2858522 4 μM, IKK inhibitor 10 μM
Protocol: as §1
Counter Screening and Secondary Assays. To counter-screen for inhibitors of the TNF pathway, HEK293-NFκB-Luc cells were seeded at 10^5 cells per well in 90 μL medium in white 96-well plates (Greiner Bio-One) and cultured overnight, before adding compounds (5 μL in medium) to cells. […] Luciferase activity was measured using Britelite kit (Perkin Elmer). […] Cells were cultured in medium containing CID-2858522 or other compounds and luciferase activity was measured 48 h later. […] Reactions were then initiated by addition of 50 μL 160 nM ATP (Sigma) in PBS and luciferase activity was measured 2 h later using a luminometer (LJL Biosystems, Sunnyvale, Calif.).

[3] = test system: XIAP plus TAB induced NF-κB activation; assay: NF-κB reporter in 293-NF-κB-luciferase cells transfected with XIAP plus TAB; format: cell-based; settings: CID-2858522 4 μM, IKK inhibitor 10 μM
Protocol: as §1, §2

[4] = test system: anti-CD3/CD28-induced IL-2 production; assay: IL-2 production by anti-CD3/CD28-stimulated Jurkat T cells (ELISA); format: cell-based, human; settings: for suppression of IL-2 production: anti-CD3/CD28 Jurkat, IKK inhibitor ≦10 μM, PKC inhibitor <0.5 μM
Protocol: (§3) FIG. 4A: Jurkat T cells were treated by anti-cd3/anti-cd28/anti-mouse IgG (6 μg/mL) or PMA/Ion (10 ng/mL) for 24 h, IL-2 production in medium was measured by ELISA kit. FIG. 4B-E: Jurkat T cells were pretreated by IKK inhibitor (B), PKC inhibitor (C), CID-2858522 (D) for 2 h and then treated by anti-cd3/anti-cd28/anti-mouse IgG (6 μg/mL) or PMA/Ion (10 ng/mL) for 24 h, IL-2 production in medium was measured by ELISA kit; E, Jurkat cells were treated by CID-2858522, PKC inhibitor and IKK inhibitor for 24 h, cell viability was measured by ATPlite kit.
In T cells, the antigen receptor stimulates several signal transduction pathways that converge on the IL-2 gene promoter, including NF-κB, NF-AT, and AP-1. For evaluating the effects of CID-2858522 on TCR-initiated, NF-κB-driven events in lymphocytes, we employed Jurkat T-leukemia cells, which have been utilized extensively as model for studying TCR-signaling leading to IL-2 gene expression. For these experiments, Jurkat cells were stimulated with either anti-CD3 (to activate the TCR complex) and anti-CD28 (co-stimulator) or with PMA/Ionomycin, in the presence or absence of CID-2858522, IKK inhibitor, or PKC inhibitor, then IL-2 production was measured 24 hrs later in culture supernatants. […] In contrast, CID-2858522 suppressed IL-2 production by CD3/CD28- and PMA/Ionomycin-stimulated Jurkat cells by approximately half (IC50) at concentrations <10 μM (FIG. 4D).
Lymphokine measurements. Human IL-2 or IL-8 levels in culture medium were measured by Enzyme-Linked Immunosorbent Assays (ELISAs), using BD OptEIA ELISAs (BD Biosciences, San Diego, Calif.), according to the manufacturer's protocol, using 96-well ELISA plates (BD Biosciences) and measuring absorbance within 30 minutes of initiating reactions using a SpectraMax 190 spectrophotometer (Molecular Devices).

[5] = test system: Jurkat cells; assay: Jurkat cell viability (ATPlite); format: cell-based; settings: 24 h
Protocol: as §3
Cell viability assay. Cell viability was estimated based on cellular ATP levels, measured using ATPlite kit (Perkin Elmer). Cells at a density of 10^5/mL were seeded at 90 μL per well in 96-well white plates and cultured overnight. Compounds were added (5 μL in medium) to wells and cells were cultured for […], Finally, 50 μL ATPlite solution was added to each well and luminescence activity was read using a luminometer (LJL Biosystems, Sunnyvale, Calif.).

[6] = molecular target: T1, PKC-theta (Homo sapiens, UniProt Q04759); assay: In vitro kinase assay PKC-theta (HTScan kit); format: biochemical; settings: CID-2858522 up to 8 μM; STS 0.5 μM; PKC inhibitor 1 μM
T1 construct: purchased Cell Signaling, Danvers, Mass
T1 sequence (Q04759 whole entry): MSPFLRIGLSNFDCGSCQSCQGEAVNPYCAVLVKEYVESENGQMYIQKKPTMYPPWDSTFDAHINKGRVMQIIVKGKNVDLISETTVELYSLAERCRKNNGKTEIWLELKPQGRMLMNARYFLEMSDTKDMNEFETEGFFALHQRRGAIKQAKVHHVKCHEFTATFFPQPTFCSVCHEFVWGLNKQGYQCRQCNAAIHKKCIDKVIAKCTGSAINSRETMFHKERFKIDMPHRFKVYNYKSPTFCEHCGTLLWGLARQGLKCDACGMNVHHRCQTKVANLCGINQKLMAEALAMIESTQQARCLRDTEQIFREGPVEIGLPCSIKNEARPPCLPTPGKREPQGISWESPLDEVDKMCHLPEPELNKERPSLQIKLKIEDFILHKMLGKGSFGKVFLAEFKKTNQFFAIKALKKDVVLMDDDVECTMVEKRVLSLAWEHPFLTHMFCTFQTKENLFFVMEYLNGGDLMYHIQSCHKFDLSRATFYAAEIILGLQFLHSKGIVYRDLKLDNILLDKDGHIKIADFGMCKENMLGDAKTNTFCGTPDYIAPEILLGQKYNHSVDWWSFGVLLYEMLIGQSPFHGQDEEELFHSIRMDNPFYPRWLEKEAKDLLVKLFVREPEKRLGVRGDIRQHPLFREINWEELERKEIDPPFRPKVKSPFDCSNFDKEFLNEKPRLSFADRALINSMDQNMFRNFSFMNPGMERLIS
Protocol: CID-2858522 (8 μM) were tested in in vitro IKK beta (A), PKC beta […] or PKC theta (C) kinase assays using kits. STS (0.5 μM), IKK inhibitor (10 μM) and PKC inhibitor (1 μM) were used as positive controls.
In Vitro Kinase Assays. PKC-beta, PKC-theta and IKK-beta in vitro kinase assays were performed using the HTScan Kinase Assay Kit (Cell Signaling, Danvers, Mass.) according to manufacturer's protocols. A panel of >300 kinases was screened by Ambit, Inc.

SMILES	suppression of CD40-induced NF-κB reporter [1]	inhibition of NOD1-induced NF-κB reporter [2]	suppression of XIAP plus TAB-driven NF-κB activation [3]	suppression of IL-2 production [4]	cytotoxicity to Jurkat cells [5]	inhibition of PKC-theta kinase activity [6]	suppression of XIAP plus TAB-driven NF-κB activation ([3]; listed as CID-288522)	IC50 ([4]; Homo sapiens, CD3/CD28-stimulated Jurkat cells, 24 h, read-out: IC50, suppression of IL-2 production (by approximately half))
Cc1ccc2nc(NCCN)c3ncc(C)n3c2c1 [BMS-345541, reference compound]	potently suppressed	inhibited	effectively suppressed	90%	not due to cytotoxicity			
CN(C)CCCn1cc(C2=C(c3c[nH]c4ccccc34)C(=O)NC2=O)c2ccccc21 [Bisindolylmaleimide I, reference compound]	not by CID-2858522 or by the PKC inhibitor			80-90%	not due to cytotoxicity	potent inhibition		
Cc1cc2nc(NCCCO)n(CC(=O)c3cc(C(C)(C)C)c(O)c(C(C)(C)C)c3)c2cc1C [Compound 1, 2-(2-(3-Hydroxypropylamino)-5,6-dimethyl-1H-benzo[d]imidazol-1-yl)-1-(3,5-di-tert-butyl-4-hydroxyphenyl)ethanone]	did not inhibit; also recorded: not by CID-2858522	did not inhibit; also recorded: not by CID-2858522	did not inhibit		not due to cytotoxicity	failed to suppress	did not	< 10 µM

— patent US20090247520A1, “INHIBITORS OF ANTIGEN RECEPTOR-INDUCED NF-kappa B ACTIVATION” (The Burnham Institute for Medical Research, priority 2008, published 2009)
